Data reported in US20210353517A1, “PROCESS FOR PRODUCING A BIO-BASED SURFACTANT” (University College Dublin, priority 2018, published 2021).

How the values were obtained:
Assay type in all cases: physicochemical
[1] = Surface tension analysis (DuNOUY ring tensiometer); conditions: at parity of concentration (w/v), 25° C., relative to SDS
Protocol: Surface tension analysis was performed with an interfacial tensiometer Cenco DuNOUY® 70545 model. In this methodology, a ring-shaped steel tool is pulled up from a surfactant solution and the corresponding millinewton per meter (mN/m) of force applied to break the surface tension is indicated. Increasingly diluted surfactant solutions are measured until the reference value of deionised water is reached (72 mN/m). The measurements were performed at 25° C.

[2] = Critical micelle concentration by conductivity assay; conditions: conductivity at 25° C., relative to SDS
Protocol: Critical micelle concentration was estimated by a conductivity assay. In this assay a pen type EC-963 model conductivity meter tester was submerged into a milliQ® grade deionised water solution to have a zero reading of pS/cm. Increasing amounts of different surfactant solutions was added to this milliQ® water solution and the conductivity was measured at 25° C. The increasing conductivity is proportional to the surfactant activity. The change of slope in the two linear interpolating curves is an indication of the critical micelle concentration (CMC) point for the specific surfactant (Al-Soufi et al 2012).

[3] = Drop shape analysis (wettability, dynamic contact angle); conditions: solution at its CMC added to 20 μL deionised water drop
Protocol: The dynamic behaviour of a 20 μL deionised water drop after the addition of an equal volume of surfactant solution at critical micelle concentration was recorded with a video recording system and analysed by a dedicated plug-in (LB-ADSA) of ImageJ® software for image analysis. The sessile drop is positioned on a smooth and plan surface of a borosilicate glass slide without any microdefects. A contour recognition is initially carried out based on a grey-scale analysis of the image. In the second step, a geometrical model describing the drop shape is fitted to the contour. The contact angle is the angle between the calculated drop shape function and the sample surface.

Foaming stability = conditions: 10 s stirring at 1500 rpm, at respective CMC values

CCCCCCCCCC(CCOS(=O)(=O)O)OS(=O)(=O)O (stereo not drawn) [dodecyl (1,3) disulfate]
surface tension value better than sodium dodecyl sulfate (SDS) [1]: 4 fold | outperformance of SDS at the specific CMC concentration (change of slope point of conductivity) [2]: 3.5 fold | wettability (speed at which the contact angle of a water drop is broken) versus SDS [3]: higher that the SDS solution | foam decrease in volume over time (Foaming stability): 2 fold | foam decrease slower than SDS (Foaming stability): 3 times | foaming volume higher than SDS (Foaming stability): 1.5 fold
